Read-outs that look alike come from different tables or passages of the source. *1 amine or outer side, *2 acyl side, *3 side chain or, on linkers, in order; H or OH if unused. Where a SMILES comes first, the peptide text is derived from it. Side-chain parts run from the residue outwards. [ ]: non-standard residue; d: D form. The star is where a group is joined. γGlu = O=C(O)[C@H](CCC(=O)[*:2])N[*:1]; αMeF = C[C@](N)(Cc1ccccc1)C(=O)O; αMeK = C[C@](N)(CCCCN)C(=O)O; Lauroyl = CCCCCCCCCCCC(=O)*; αMeS = C[C@](N)(CO)C(=O)O; AEEA = NCCOCCOCC(=O)O; Aib = CC(C)(N)C(=O)O
How the values were obtained:
[1] = test system: C57Bl/6 J mice; assay: Acute food intake in C57Bl/6J mice; assay type: in vivo, mouse; conditions: versus placebo
Method: Male C57Bl/6 J mice 8–10 weeks of age (Jackson Laboratories, Bar Harbor, ME, USA) were single-housed in the BioDAQ (Research Diets, New Brunswick, NJ, USA) food monitoring system with ad libitum access to standard chow and water. Mice were randomized into groups of 6–9 per group on baseline 24-h food intake. On the first study day, mice were fasted for 6 h and then received a single subcutaneous dose of test peptide or placebo (50 mM Tris–HCl, 150 mM mannitol, 0.02% polysorbate 80; pH 8.0). Food intake was monitored over the next 48 h.

[2] = target: T1, GLP-1R (endogenously expressed, EndoC-βH1 cells) (Homo sapiens, UniProt P43220); assay: cAMP accumulation assay in EndoC-βH1 human pancreatic β-cells; assay type: cell-based; conditions: geometric mean (SEM)
T1 construct: EndoC-βH1 human pancreatic β-cell line, which endogenously expresses GLP-1R; endogenous in cells; host or cells: EndoC-βH1 human pancreatic β-cells
Method: (§1) All reagents for cAMP assays were obtained from Sigma-Aldrich unless otherwise specified.
(§2) Cells were suspended in assay buffer and combined with serially diluted peptides at room temperature for 30 min. cAMP levels were measured using a cAMP dynamic 2 HTRF kit (Cisbio, Codolet, France), following the manufacturer’s two-step protocol, on an EnVision plate reader (PerkinElmer, Waltham, MA, USA). […] The transformed data were analyzed by four-parameter logistic fit to determine EC50 values using GraphPad Prism 6 (GraphPad Software, San Diego, CA, USA).

[3] = test system: monkey plasma protein; assay: EScalate equilibrium shift assay, monkey plasma; assay type: in vitro ADME; conditions: EScalate equilibrium shift assay
Method: [The procedure below names another species; the source lists this species under the same test.] (§3) Binding of peptides to human plasma proteins was determined by the EScalate equilibrium shift assay (Sovicell, Leipzig, Germany), using five dilutions of plasma in phosphate buffered saline and an assumed binding protein concentration of 600 µM. Samples were incubated for 1 h at room temperature then centrifuged to remove the HSA-coated beads. Supernatant samples were analyzed using HPLC (3 µm Phenomenex Aeris Widepore XB-C18 stationary phase) coupled to an electrospray ionization quadrupole time-of-flight mass spectrometer in high resolution accurate mass mode (Agilent, Santa Clara, CA, USA). Unbound fractions were calculated from the concentration-dependent shift in binding equilibrium according to fu=1/1+P/KDPlasma , where P is the concentration of the binding protein in plasma and KDPlasma is the dissociation constant of the compound from plasma proteins in solution.

[4] = EScalate equilibrium shift assay, monkey plasma; assay type: in vitro ADME; conditions: monkey; EScalate equilibrium shift, five dilutions of plasma in PBS, 1 h at room temperature, HPLC-QTOF MS; read-out: Fraction unbound peptide (%), monkey
Method: [The procedure below names another species; the source lists this species under the same test.] as §3

[5] = test system: rat plasma protein; assay: EScalate equilibrium shift assay, rat plasma; assay type: in vitro ADME; conditions: EScalate equilibrium shift assay
[6] = EScalate equilibrium shift assay, rat plasma; assay type: in vitro ADME; conditions: rat; EScalate equilibrium shift, five dilutions of plasma in PBS, 1 h at room temperature, HPLC-QTOF MS; read-out: Fraction unbound peptide (%), rat
[7] = test system: human plasma protein; assay: EScalate equilibrium shift assay, human plasma; assay type: in vitro ADME
Method: as §3

[8] = Pharmacokinetics of oral tablets in dogs; assay type: in vivo; conditions: oral tablets 20 mg/dog, semaglutide: 300 mg SNAC, uncoated, MEDI7219: 100 mg NaCDC and 200 mg PG, pH 5.5 enteric, n = 9
[9] = test system: dog plasma protein; assay: EScalate equilibrium shift assay, dog plasma; assay type: in vitro ADME; conditions: EScalate equilibrium shift assay
[10] = EScalate equilibrium shift assay, dog plasma; assay type: in vitro ADME; conditions: dog; EScalate equilibrium shift, five dilutions of plasma in PBS, 1 h at room temperature, HPLC-QTOF MS; read-out: Fraction unbound peptide (%), dog
[11] = target: T2, human GLP-1R (Homo sapiens, UniProt P43220); assay: cAMP accumulation assay in CHO cells stably expressing human GLP-1R; assay type: cell-based; conditions: geometric mean (SEM); for EC50: 30 min at room temperature, HTRF cAMP, n ≥ 3 independent experiments
T2 construct: expressed in transfected cells
Method: as §1, §2

[12] = Fasted-state simulated intestinal fluid/pancreatin assay; assay type: in vitro ADME; conditions: FaSSIF with USP pancreatin; 2 h incubation in FaSSIF/USP pancreatin, pre-warmed, agitation; analytical RP-HPLC area under the curve; read-out: peptide remaining intact after incubation in FaSSIF/pancreatin
Method: Fresh FaSSIF and USP Pancreatin (FaSSIF/p; Sigma-Aldrich) was prepared according to Galia et al[55]. and used immediately. Peptides were dissolved in pre-warmed FaSSIF before addition of pre-warmed FaSSIF/pancreatin with agitation. Samples were analyzed by analytical RP-HPLC to determine remaining intact peptide by area under the curve.

[13] = test system: HFHF fed dogs; assay: Dog model of obesity and insulin resistance (HFHF fed dogs), oral tablets; assay type: in vivo; conditions: for plasma glucose excursions after oral glucose challenge: 10–40 min after glucose, P < 0.05, n = 7–11 per group
Method: For the single-dose study, dogs were randomized on baseline glucose levels to receive MEDI7219 1 mg or 10 mg or placebo tablets in the morning following an overnight fast (7–11 dogs per group). Ninety minutes after tablet administration, dogs received an oral glucose bolus (200 mg/mL at a 5 mL/kg volume calculated on body weight prior to HFHF feeding), and blood glucose (blood collected via peripheral vein) was measured with an AlphaTRAK glucometer system (Zoetis, Parsippany, NJ, USA) at –90, 0, 10, 20, 30, 40, 50, 60, 75, 90, 120, 180 and 240 min after glucose administration. Approximately 12 weeks later, dogs entered the multiple-dose study and received either MEDI7219 10 mg (n = 12) or placebo tablets (n = 6) once daily for 14 days. Dogs received two cups of HFHF canine diet per day, with feeding 3 h postdose during the 14-day study. Dogs had access to water ad libitum throughout the study. Food intake and body weight were monitored daily. On day 14, after overnight fasting, dogs received their final dose followed by an oral glucose and acetaminophen bolus 90 min after administration. Blood glucose was measured as described previously, and plasma acetaminophen levels were measured by LC/MS method at the same time points.

T2 sequence (P43220 24-463): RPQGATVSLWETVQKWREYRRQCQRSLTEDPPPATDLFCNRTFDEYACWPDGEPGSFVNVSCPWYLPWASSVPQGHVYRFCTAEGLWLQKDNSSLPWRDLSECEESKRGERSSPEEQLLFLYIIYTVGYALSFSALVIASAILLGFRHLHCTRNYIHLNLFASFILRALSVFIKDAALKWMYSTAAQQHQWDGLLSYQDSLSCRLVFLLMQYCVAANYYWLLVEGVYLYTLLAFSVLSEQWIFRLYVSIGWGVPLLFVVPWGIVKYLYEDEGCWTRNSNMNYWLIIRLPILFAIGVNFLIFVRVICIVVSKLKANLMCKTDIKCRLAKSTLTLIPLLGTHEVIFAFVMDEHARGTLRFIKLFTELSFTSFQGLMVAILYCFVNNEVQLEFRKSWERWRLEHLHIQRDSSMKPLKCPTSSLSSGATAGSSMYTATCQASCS
T1 sequence (P43220 24-463): as above

- EC50 ([2]; 0.1% BSA, 30 min at room temperature, HTRF cAMP, n ≥ 3 independent experiments): 1.36 nM
- Human EndoC-βH1 cAMP 0.1% BSA Effect at max. concentration ([2]; % activation, 80 nM native GLP-1 defines maximum effect): 97.5 (7.1) %
- peptide bound to plasma proteins, monkey [3]: over 97%
- peptide bound to plasma proteins, rat [5]: over 97%
- peptide bound to plasma proteins, human ([7]; EScalate equilibrium shift assay): over 97%
- AUC0-inf ([8]; arithmetic mean (% CV)): 13,500 (54.2) ng·h/mL
- CL/F (oral clearance) ([8]; arithmetic mean (% CV)): 1,880 (52.1) mL/h
- Cmax ([8]; arithmetic mean (% CV)): 1,450 (63.2) ng/mL
- F (bioavailability, systemic fraction) ([8]; arithmetic mean (% CV)): 5.92 (54.2) %
- Tmax ([8]; median (min–max)): 1.5 (1.0–4.5) hours
- t½ ([8]; plasma, LC/MS, arithmetic mean (% CV)): 9.8 (13.2) hours
- peptide bound to plasma proteins, dog [9]: over 97%
- CHO-hGLP-1R cAMP 0.1% BSA Effect at max. concentration ([11]; 0.1% BSA, % activation, 80 nM native GLP-1 defines maximum effect): 101.7 (0.5) %
- EC50 ([11]; 4.4% HSA, read-out: CHO-hGLP-1R cAMP 4.4% HSA EC50): 0.398 nM
- CHO-hGLP-1R cAMP 4.4% HSA Effect at max. concentration ([11]; 4.4% HSA, % activation, 80 nM native GLP-1 defines maximum effect): 94.3 (1.8) %
- EC50 ([11]; CHO-hGLP-1R cAMP 0.1% BSA EC50, 0.1% BSA): 0.0034 nM
- remaining at 2 h [12]: > 60%
SMILES: CCCCCCCCCCCC(=O)N[C@@H](CCC(=O)NCCOCCOCC(=O)NCCOCCOCC(=O)NCCCC[C@H](NC(=O)[C@H](C)NC(=O)[C@@H](NC(=O)[C@](C)(Cc1ccccc1)NC(=O)[C@H](CCC(=O)O)NC(=O)[C@](C)(CCCCN)NC(=O)[C@H](C)NC(=O)[C@H](C)NC(=O)[C@H](CCC(=O)O)NC(=O)CNC(=O)[C@H](CCC(=O)O)NC(=O)[C@H](CC(C)C)NC(=O)[C@H](CCCCNC(=O)COCCOCCNC(=O)COCCOCCNC(=O)CC[C@H](NC(=O)CCCCCCCCCCC)C(=O)O)NC(=O)[C@H](CO)NC(=O)[C@](C)(CO)NC(=O)[C@@H](NC(=O)[C@H](CC(=O)O)NC(=O)[C@H](CO)NC(=O)[C@@H](NC(=O)[C@](C)(Cc1ccccc1)NC(=O)[C@H](CO)NC(=O)CNC(=O)[C@H](CCC(=O)O)NC(=O)C(C)(C)NC(=O)[C@@H](N)Cc1c[nH]cn1)[C@@H](C)O)C(C)C)[C@@H](C)CC)C(=O)N[C@H](C(=O)N[C@H](C(=O)N[C@@H](CCC(=O)O)C(=O)NCC(=O)NCC(N)=O)C(C)C)C(C)C)C(=O)O [MEDI7219] (H-H[Aib]EGS[αMeF]TSDV[αMeS]SK([AEEA-AEEA-γGlu-Lauroyl])LEGEAA[αMeK]E[αMeF]IAK([AEEA-AEEA-γGlu-Lauroyl])VVEGG-NH2)
- 24-hour food intake, decrease (↓) in Fig. 3a ([1]; subcutaneous 0.3 nmol/kg): 12.6%
- 24-hour food intake, decrease (↓) in Fig. 3a ([1]; subcutaneous 1 nmol/kg): 18.0%
- 24-hour food intake, decrease (↓) in Fig. 3a ([1]; subcutaneous 3 nmol/kg): 39.4%
- fraction unbound at 1 h [4]: 0.025
- fraction unbound at 1 h [6]: 0.006
- Fraction unbound peptide (%), human ([7]; EScalate equilibrium shift, HSA-coated beads, five dilutions of plasma in PBS, 1 h at room temperature, HPLC-QTOF MS): 1.75%
- fraction unbound at 1 h [10]: 0.0176
- body weight change over 14 days ([13]; once-daily 10 mg oral tablets, 14 days, placebo + 0.71%, P < 0.05, n = 12): –4.86%
- glucose excursions in oral glucose tolerance test, day 14 ([13]; once-daily 10 mg oral tablets, fasted, postdose day 14, versus placebo, P < 0.01): significant improvements in glucose excursions
- peak plasma acetaminophen concentration (gastric emptying), day 14 ([13]; once-daily 10 mg oral tablets, oral acetaminophen with glucose bolus, versus placebo): significantly reduced at 20–40 min (P < 0.05) and delayed
- cumulative food intake over 14 days ([13]; once-daily 10 mg oral tablets, versus placebo, P < 0.05): significantly decreased cumulative food intake
- plasma glucose excursions after oral glucose challenge ([13]; single dose 1 mg oral tablet, versus placebo): statistically significantly improved
- plasma glucose excursions after oral glucose challenge ([13]; single dose 10 mg oral tablet, versus placebo): statistically significantly improved

Reference: paper PMC8602401 (Scientific Reports, 2021)
